Test results published in ChEMBL document CHEMBL6074684, “Structure-activity relationship study of novel evodiamine amino acid conjugates with potent anti-colorectal cancer efficacy” (Eur J Med Chem, 2025).

How the values were obtained:
Format in all cases: functional, cell-based
[1] = system: MGC-803; test: Antiproliferative activity against human MGC-803 cells assessed as inhibition of cell growth incubated for 72 hrs by MTT assay; conditions: MGC-803, 72 h
[2] = system: HGC-27; test: Antiproliferative activity against human HGC-27 cells assessed as inhibition of cell growth incubated for 72 hrs by MTT assay; conditions: HGC-27, 72 h
[3] = system: SGC-7901; test: Antiproliferative activity against human SGC-7901 cells assessed as inhibition of cell growth incubated for 72 hrs by MTT assay; conditions: SGC-7901, 72 h
[4] = system: HT-29; test: Antiproliferative activity against human HT-29 cells assessed as inhibition of cell growth incubated for 72 hrs by MTT assay; conditions: HT-29, 72 h
[5] = system: HCT-116; test: Antiproliferative activity against human […] cells assessed as inhibition of cell growth incubated for 72 hrs by MTT assay; conditions: HCT-116, 72 h
[6] = system: LoVo; test: Antiproliferative activity against human LoVo cells assessed as inhibition of cell growth incubated for 72 hrs by MTT assay
[7] = system: Huh-7; test: Antiproliferative activity against human Huh-7 cells assessed as inhibition of cell growth incubated for 72 hrs by MTT assay; conditions: Huh-7, 72 h
[8] = system: RKO; test: Antiproliferative activity against human RKO cells assessed as inhibition of cell growth incubated for 72 hrs by MTT assay
[9] = system: MCF7; test: Antiproliferative activity against human MCF7 cells assessed as inhibition of cell growth incubated for 72 hrs by MTT assay; conditions: MCF7, 72 h
[10] = system: SK-HEP1; test: Antiproliferative activity against human SK-HEP1 cells assessed as inhibition of cell growth incubated for 72 hrs by MTT assay; conditions: SK-HEP1, 72 h

| Compound | IC50 [1] | IC50 [2] | IC50 [3] | IC50 [4] | IC50 [5] | IC50 [6] | IC50 [7] | IC50 [8] | IC50 [9] | IC50 [10] |
| --- | --- | --- | --- | --- | --- | --- | --- | --- | --- | --- |
| CC(C)(C)OC(=O)N[C@@H](Cc1c[nH]c2ccccc12)C(=O)Oc1ccc2[nH]c3c(c2c1)CCN1C(=O)c2cc(F)ccc2N(c2cccc(F)c2)[C@H]31 | 0.69 µM | 0.33 µM | 1.48 µM | 0.54 µM | 0.28 µM | 0.25 µM | 0.4 µM | 0.08 µM | 1.28 µM | 0.9 µM |
| CC(C)(C)OC(=O)N[C@@H](Cc1cnc[nH]1)C(=O)Oc1ccc2[nH]c3c(c2c1)CCN1C(=O)c2cc(F)ccc2N(c2cccc(F)c2)[C@H]31 | 0.2 µM | 0.16 µM | 0.23 µM | 0.36 µM | 0.36 µM | 0.12 µM | 0.27 µM | 0.11 µM | 0.74 µM | 0.77 µM |
| CC(C)(C)OC(=O)N[C@@H](Cc1ccccc1)C(=O)Oc1ccc2[nH]c3c(c2c1)CCN1C(=O)c2cc(F)ccc2N(c2cccc(F)c2)[C@H]31 | 0.22 µM | 0.28 µM | 0.49 µM | 0.43 µM | 0.36 µM | 0.23 µM | 0.2 µM | 0.09 µM | 0.95 µM | 0.77 µM |
| C[C@H](NC(=O)OC(C)(C)C)C(=O)Oc1ccc2[nH]c3c(c2c1)CCN1C(=O)c2cc(F)ccc2N(c2cccc(F)c2)[C@@H]31 | 11.3 µM | 20.3 µM | 40.2 µM | 18.6 µM | 18.2 µM | 19.7 µM | 11.7 µM | 15.9 µM | 28.5 µM | 26.6 µM |
| C[C@H](NC(=O)OC(C)(C)C)C(=O)Oc1ccc2[nH]c3c(c2c1)CCN1C(=O)c2cc(F)ccc2N(c2cccc(F)c2)[C@H]31 | 0.31 µM | 0.27 µM | 0.63 µM | 0.28 µM | 0.37 µM | 0.23 µM | 0.16 µM | 0.12 µM | 1.98 µM | 2.65 µM |
| O=C1c2cc(F)ccc2N(c2cccc(F)c2)[C@H]2c3[nH]c4ccc(O)cc4c3CCN12 |  |  |  | 0.18 µM | 0.35 µM | 0.13 µM |  | 0.1 µM |  |  |
| CC(C)(C)OC(=O)NCC(=O)Oc1ccc2[nH]c3c(c2c1)CCN1C(=O)c2cc(F)ccc2N(c2cccc(F)c2)[C@H]31 | 0.21 µM | 0.2 µM | 0.48 µM | 0.26 µM | 0.2 µM | 0.17 µM | 0.16 µM | 0.095 µM | 1.19 µM | 1.39 µM |
| CC(C)(C)OC(=O)N[C@@H](COCc1ccccc1)C(=O)Oc1ccc2[nH]c3c(c2c1)CCN1C(=O)c2cc(F)ccc2N(c2cccc(F)c2)[C@H]31 | 0.41 µM | 0.32 µM | 0.54 µM | 0.38 µM | 0.4 µM | 0.19 µM | 0.3 µM | 0.11 µM | 0.83 µM | 0.65 µM |
| CSCC[C@H](NC(=O)OC(C)(C)C)C(=O)Oc1ccc2[nH]c3c(c2c1)CCN1C(=O)c2cc(F)ccc2N(c2cccc(F)c2)[C@@H]31 | 17.8 µM | 28.6 µM | 46.1 µM | 28.7 µM | 20.2 µM | 14.9 µM | 13.8 µM | 20.5 µM | 50.5 µM | 38.5 µM |
| CCC(C)[C@H](NC(=O)OC(C)(C)C)C(=O)Oc1ccc2[nH]c3c(c2c1)CCN1C(=O)c2cc(F)ccc2N(c2cccc(F)c2)[C@@H]31 (some centres undefined) | > 100 µM | 55.7 µM | > 100 µM | 52.5 µM | > 100 µM | 55.8 µM | 46 µM | > 100 µM | 69.8 µM | 62.4 µM |
| CC(C)[C@H](NC(=O)OC(C)(C)C)C(=O)Oc1ccc2[nH]c3c(c2c1)CCN1C(=O)c2cc(F)ccc2N(c2cccc(F)c2)[C@H]31 | 0.38 µM | 0.42 µM | 0.81 µM | 0.34 µM | 0.43 µM | 0.29 µM | 0.28 µM | 0.2 µM | 0.98 µM | 1.15 µM |
| CC(C)[C@H](NC(=O)OC(C)(C)C)C(=O)Oc1ccc2[nH]c3c(c2c1)CCN1C(=O)c2cc(F)ccc2N(c2cccc(F)c2)[C@@H]31 | 20.8 µM | 22.3 µM | 44.3 µM | 25.8 µM | 29 µM | 21.9 µM | 14.2 µM | 11.9 µM | 30.4 µM | 37.8 µM |
| CCC(C)[C@H](NC(=O)OC(C)(C)C)C(=O)Oc1ccc2[nH]c3c(c2c1)CCN1C(=O)c2cc(F)ccc2N(c2cccc(F)c2)[C@H]31 (some centres undefined) | 0.48 µM | 0.52 µM | 1.57 µM | 0.44 µM | 0.55 µM | 0.32 µM | 0.31 µM | 0.23 µM | 0.81 µM | 0.97 µM |
| CC(C)C[C@H](NC(=O)OC(C)(C)C)C(=O)Oc1ccc2[nH]c3c(c2c1)CCN1C(=O)c2cc(F)ccc2N(c2cccc(F)c2)[C@@H]31 | 7.56 µM | 18.6 µM | 41.8 µM | 21.4 µM | 16.8 µM | 10.2 µM | 9.73 µM | 10.5 µM | 22.7 µM | 35.1 µM |
| CSCC[C@H](NC(=O)OC(C)(C)C)C(=O)Oc1ccc2[nH]c3c(c2c1)CCN1C(=O)c2cc(F)ccc2N(c2cccc(F)c2)[C@H]31 | 0.33 µM | 0.21 µM | 0.51 µM | 0.33 µM | 0.36 µM | 0.2 µM | 0.21 µM | 0.14 µM | 0.78 µM | 0.68 µM |
| CC(C)(C)OC(=O)NCC(=O)Oc1ccc2[nH]c3c(c2c1)CCN1C(=O)c2cc(F)ccc2N(c2cccc(F)c2)[C@@H]31 | 29.6 µM | 32.1 µM | 42.6 µM | 24.1 µM | 33.1 µM | 26.4 µM | 17.2 µM | 38.6 µM | 38.9 µM | 30.5 µM |
| CC(C)(C)OC(=O)N[C@@H](COCc1ccccc1)C(=O)Oc1ccc2[nH]c3c(c2c1)CCN1C(=O)c2cc(F)ccc2N(c2cccc(F)c2)[C@@H]31 | 16.2 µM | 20.6 µM | 57.1 µM | 29.4 µM | 24.6 µM | 15.3 µM | 10.1 µM | 16.8 µM | 22.1 µM | 35.9 µM |
| CC(C)(C)OC(=O)N[C@@H](Cc1cnc[nH]1)C(=O)Oc1ccc2[nH]c3c(c2c1)CCN1C(=O)c2cc(F)ccc2N(c2cccc(F)c2)[C@@H]31 | 15.5 µM | 23.7 µM | 66.5 µM | 28.3 µM | 21 µM | 12.4 µM | 12.8 µM | 16.3 µM | 47 µM | 33.5 µM |
| CC(C)(C)OC(=O)N[C@@H](Cc1ccccc1)C(=O)Oc1ccc2[nH]c3c(c2c1)CCN1C(=O)c2cc(F)ccc2N(c2cccc(F)c2)[C@@H]31 | 15.9 µM | 22.7 µM | 47.7 µM | 30.5 µM | 26.2 µM | 15.7 µM | 11.8 µM | 19.5 µM | 47.3 µM | 37.8 µM |
| CC(C)C[C@H](NC(=O)OC(C)(C)C)C(=O)Oc1ccc2[nH]c3c(c2c1)CCN1C(=O)c2cc(F)ccc2N(c2cccc(F)c2)[C@H]31 | 0.32 µM | 0.3 µM | 0.69 µM | 0.19 µM | 0.37 µM | 0.22 µM | 0.14 µM | 0.15 µM | 1.1 µM | 0.65 µM |
| CC(C)(C)OC(=O)N[C@@H](Cc1c[nH]c2ccccc12)C(=O)Oc1ccc2[nH]c3c(c2c1)CCN1C(=O)c2cc(F)ccc2N(c2cccc(F)c2)[C@@H]31 | 18.6 µM | 25.6 µM | 67.3 µM | 30.2 µM | 24.2 µM | 18.3 µM | 13.5 µM | 15.9 µM | 30.6 µM | 36.6 µM |
